# Data published in publication PMC5845896, “A Novel Bifunctional Amino Acid Racemase With Multiple Substrate Specificity, MalY From Lactobacillus sakei LT-13: Genome-Based Identification and Enzymological Characterization” (Frontiers in Microbiology, 2018).
# Changes are numbered by the printed parent chain.
# Experiments:
# [1] = biological target: T1, Ls-MalY (Lactobacillaceae, UniProt A0A223K4L6, Y123A); test: UV-vis absorption spectrum, hydroxylamine treatment; format: binding; details: 20 mM potassium phosphate pH 7.5; as purified
# T1 construct: full length in pET-22b(+), C-terminal hexa-histidine tag, E. coli BL21(DE3), subunit ~46 kDa with tag, 281 kDa by gel filtration, homohexamer
# T1 sequence (A0A223K4L6 1-391 Y123A): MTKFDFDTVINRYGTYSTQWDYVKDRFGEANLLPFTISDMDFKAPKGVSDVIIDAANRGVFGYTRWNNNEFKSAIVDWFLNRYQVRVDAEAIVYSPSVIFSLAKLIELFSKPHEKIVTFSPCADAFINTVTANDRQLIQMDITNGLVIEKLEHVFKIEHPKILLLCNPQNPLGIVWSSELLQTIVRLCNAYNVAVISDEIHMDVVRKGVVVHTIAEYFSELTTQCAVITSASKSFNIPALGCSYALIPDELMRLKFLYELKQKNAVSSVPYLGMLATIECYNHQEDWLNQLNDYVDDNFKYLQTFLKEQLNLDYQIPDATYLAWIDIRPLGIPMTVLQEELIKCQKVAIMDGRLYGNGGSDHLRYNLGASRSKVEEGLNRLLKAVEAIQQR
# [2] = biological target: T2, Ls-MalY (Lactobacillaceae, UniProt A0A223K4L6); test: UV-vis absorption spectrum ([…] nm peak), hydroxylamine treatment; format: binding; details: 20 mM potassium phosphate pH 7.5; as purified; covalent, K233
# T2 construct: full length in pET-22b(+), C-terminal hexa-histidine tag, E. coli BL21(DE3), subunit ~46 kDa with tag, 281 kDa by gel filtration, homohexamer
# T2 sequence (A0A223K4L6 1-391): T1 sequence (A0A223K4L6 1-391 Y123A) with A123Y
# [3] = biological target: MalY from Lactobacillus sakei LT-13 (wild type) (Lactobacillus sakei LT-13); test: SEC; Superdex 200 Increase 10/300 GL, 20 mM potassium phosphate pH 7.5 with 0.15 M KCl, 0.75 mL/min; molecular weight estimated against markers (thyroglobulin, apoferritin, β-amylase, BSA, carbonic anhydrase)
stoichiometry N [3],Compound,"UV-vis absorption spectrum, hydroxylamine treatment [1]","UV-vis absorption spectrum (420 nm peak), hydroxylamine treatment [2]"
–,Cc1ncc(COP(=O)(O)O)c(C=O)c1O [PLP],These spectral features suggest that the Y123A mutant bound PLP,"the absorption peak was abolished by treatment with hydroxylamine (Figure 3A), suggesting that Ls-MalY bound PLP"
6,MalY from Lactobacillus sakei LT-13 (wild type) (enzyme),–,–
